Where “and” joins values, the source holds several entries; their conditions need not be identical. Equal entries are not always repeated.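 Exposure lasted 48 hours, with cells grown in 96-well plates and compounds tested at five concentrations. Abbreviation: GI50, concentration required for 50% inhibition of growth. TGI is the concentration that stops growth completely.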
Tests used:
Test in all cases: NCI tumour cell line growth inhibition, 48 h
RPMI-8226 leukemia = tested on: RPMI-8226 leukemia
COLO 205 colon = tested on: COLO 205 colon
HCT-15 colon = tested on: HCT-15 colon
MDA-MB-468 breast = tested on: MDA-MB-468 breast
A549 NSCLC = tested on: A549 NSCLC
OVCAR-8 ovarian = tested on: OVCAR-8 ovarian
M14 melanoma = tested on: M14 melanoma
786-0 renal = tested on: 786-0 renal
IGROV1 ovarian = tested on: IGROV1 ovarian
SF-539 CNS = tested on: SF-539 CNS
EKVX NSCLC = tested on: EKVX NSCLC
RXF 393 renal = tested on: RXF 393 renal
NCI-H522 lung = tested on: NCI-H522 lung
MCF7 breast = tested on: MCF7 breast
SK-MEL-5 melanoma = tested on: SK-MEL-5 melanoma
SNB-19 CNS = tested on: SNB-19 CNS
SN12C renal = tested on: SN12C renal
NCI-H23 lung = tested on: NCI-H23 lung
A498 renal = tested on: A498 renal
HCC-2998 colon = tested on: HCC-2998 colon
U251 CNS = tested on: U251 CNS
KM12 colon = tested on: KM12 colon
SK-MEL-28 melanoma = tested on: SK-MEL-28 melanoma
SK-OV-3 ovarian = tested on: SK-OV-3 ovarian
SF-268 CNS = tested on: SF-268 CNS
MDA-MB-231 breast = tested on: MDA-MB-231 breast
OVCAR-5 ovarian = tested on: OVCAR-5 ovarian
K-562 leukemia = tested on: K-562 leukemia
CAKI-1 renal = tested on: CAKI-1 renal
HOP-92 NSCLC = tested on: HOP-92 NSCLC
MOLT-4 leukemia = tested on: MOLT-4 leukemia
UACC-62 melanoma = tested on: UACC-62 melanoma
SNB-75 CNS = tested on: SNB-75 CNS
UACC-257 melanoma = tested on: UACC-257 melanoma
NCI-H226 lung = tested on: NCI-H226 lung
T-47D breast = tested on: T-47D breast
BT-549 breast = tested on: BT-549 breast
NCI-H460 lung = tested on: NCI-H460 lung
HS 578T breast = tested on: HS 578T breast
CCRF-CEM leukemia = tested on: CCRF-CEM leukemia
OVCAR-4 ovarian = tested on: OVCAR-4 ovarian
DU-145 prostate = tested on: DU-145 prostate
LOX IMVI melanoma = tested on: LOX IMVI melanoma
OVCAR-3 ovarian = tested on: OVCAR-3 ovarian
HT29 colon = tested on: HT29 colon
SW-620 colon = tested on: SW-620 colon
SF-295 CNS = tested on: SF-295 CNS
NCI/ADR-RES ovarian = tested on: NCI/ADR-RES ovarian
MALME-3M melanoma = tested on: MALME-3M melanoma
HL-60(TB) leukemia = tested on: HL-60(TB) leukemia
PC-3 prostate = tested on: PC-3 prostate
SK-MEL-2 melanoma = tested on: SK-MEL-2 melanoma
HOP-62 NSCLC = tested on: HOP-62 NSCLC
MDA-MB-435 = tested on: MDA-MB-435

CCCSc1nc(Nc2ccc(S(N)(=O)=O)cc2)c(C#N)c(-c2ccc(Cl)cc2)n1
GI50 (RPMI-8226 leukemia): 3.14 µM | TGI (RPMI-8226 leukemia): > 100 µM | GI50 (COLO 205 colon): 9.54 µM | TGI (COLO 205 colon): > 100 µM | GI50 (HCT-15 colon): 2.92 µM | TGI (HCT-15 colon): > 100 µM | GI50 (MDA-MB-468 breast): 4.49 µM | TGI (MDA-MB-468 breast): 37.1 µM | GI50 (A549 NSCLC): 3.62 µM | TGI (A549 NSCLC): > 100 µM | GI50 (OVCAR-8 ovarian): 3.42 µM | TGI (OVCAR-8 ovarian): 16.1 µM | GI50 (M14 melanoma): 3.48 µM | TGI (M14 melanoma): 25.3 µM | GI50 (786-0 renal): 1.98 µM | TGI (786-0 renal): 4.06 µM | GI50 (IGROV1 ovarian): 6.03 µM | TGI (IGROV1 ovarian): > 100 µM | GI50 (SF-539 CNS): 2.57 µM | TGI (SF-539 CNS): 10 µM | GI50 (EKVX NSCLC): 9.38 µM | TGI (EKVX NSCLC): > 100 µM | GI50 (RXF 393 renal): 2 µM | TGI (RXF 393 renal): 4.63 µM | GI50 (NCI-H522 lung): 16.4 µM | TGI (NCI-H522 lung): > 100 µM | GI50 (MCF7 breast): 24.3 µM | TGI (MCF7 breast): > 100 µM | GI50 (SK-MEL-5 melanoma): 6.96 µM | TGI (SK-MEL-5 melanoma): > 100 µM | GI50 (SNB-19 CNS): 4.04 µM | TGI (SNB-19 CNS): 20.9 µM | GI50 (SN12C renal): 2.39 µM | TGI (SN12C renal): 7.5 µM | GI50 (NCI-H23 lung): 9.53 µM | TGI (NCI-H23 lung): 43 µM | GI50 (A498 renal): 1.78 µM | TGI (A498 renal): 4.31 µM | GI50 (HCC-2998 colon): 4.2 µM | TGI (HCC-2998 colon): > 100 µM | GI50 (U251 CNS): 2.42 µM | TGI (U251 CNS): 7.81 µM | GI50 (KM12 colon): 4.17 µM | TGI (KM12 colon): > 100 µM | GI50 (SK-MEL-28 melanoma): 36.1 µM | TGI (SK-MEL-28 melanoma): > 100 µM | GI50 (SK-OV-3 ovarian): 4.11 µM | TGI (SK-OV-3 ovarian): 67.6 µM | GI50 (SF-268 CNS): 9 µM | TGI (SF-268 CNS): > 100 µM | GI50 (MDA-MB-231 breast): 2.83 µM | TGI (MDA-MB-231 breast): 8.9 µM | GI50 (OVCAR-5 ovarian): 8.78 µM | TGI (OVCAR-5 ovarian): > 100 µM | GI50 (K-562 leukemia): 2.85 µM | TGI (K-562 leukemia): > 100 µM | GI50 (CAKI-1 renal): 1.94 µM | TGI (CAKI-1 renal): 4.8 µM | GI50 (HOP-92 NSCLC): 1.39 µM | TGI (HOP-92 NSCLC): 3.73 µM | GI50 (MOLT-4 leukemia): 8.11 µM | TGI (MOLT-4 leukemia): > 100 µM | GI50 (UACC-62 melanoma): 5.11 µM | TGI (UACC-62 melanoma): > 100 µM | GI50 (SNB-75 CNS): 2.03 µM | TGI (SNB-75 CNS): 9.63 µM | GI50 (UACC-257 melanoma): 28.5 µM | TGI (UACC-257 melanoma): > 100 µM | GI50 (NCI-H226 lung): 2.6 µM | TGI (NCI-H226 lung): 8.66 µM | GI50 (T-47D breast): > 100 µM | TGI (T-47D breast): > 100 µM | GI50 (BT-549 breast): 30.8 µM | TGI (BT-549 breast): > 100 µM | GI50 (NCI-H460 lung): 3.85 µM | TGI (NCI-H460 lung): 22.4 µM | GI50 (HS 578T breast): 2.59 µM | TGI (HS 578T breast): 8.09 µM | GI50 (CCRF-CEM leukemia): > 100 µM | TGI (CCRF-CEM leukemia): > 100 µM | GI50 (OVCAR-4 ovarian): 2.23 µM | TGI (OVCAR-4 ovarian): 5.65 µM | GI50 (DU-145 prostate): 12.2 µM | TGI (DU-145 prostate): 97.1 µM | GI50 (LOX IMVI melanoma): 1.82 µM | TGI (LOX IMVI melanoma): 3.55 µM | GI50 (OVCAR-3 ovarian): 3.63 µM | TGI (OVCAR-3 ovarian): 19.6 µM | GI50 (HT29 colon): 6.41 µM | TGI (HT29 colon): > 100 µM | GI50 (SW-620 colon): 4.67 µM | TGI (SW-620 colon): 29.6 µM | GI50 (SF-295 CNS): 2.1 µM | TGI (SF-295 CNS): 4.94 µM | GI50 (NCI/ADR-RES ovarian): 4.89 µM | TGI (NCI/ADR-RES ovarian): 90.5 µM | GI50 (MALME-3M melanoma): 3.07 µM | TGI (MALME-3M melanoma): 17.9 µM | GI50 (HL-60(TB) leukemia): > 100 µM | TGI (HL-60(TB) leukemia): > 100 µM | GI50 (PC-3 prostate): 13.4 µM | TGI (PC-3 prostate): > 100 µM | GI50 (SK-MEL-2 melanoma): 13.8 µM | TGI (SK-MEL-2 melanoma): > 100 µM | GI50 (HOP-62 NSCLC): 2.35 µM | TGI (HOP-62 NSCLC): 5.67 µM | GI50 (MDA-MB-435): 7.9 µM | TGI (MDA-MB-435): > 100 µM

CN(C)c1ccc(/C=C(\C#N)c2nc3ccccc3n2C)cc1
GI50 (MDA-MB-468 breast): 1.76 µM | TGI (MDA-MB-468 breast): > 100 µM

CCN1C(=O)NC(=O)C(C)(N2C(=O)c3c(F)c(F)c(F)c(F)c3C2=O)C1=O (stereo unspecified)
GI50 (MDA-MB-468 breast): 1.75 µM | TGI (MDA-MB-468 breast): 5.68 µM

CNC(=O)c1ccc2cc(C3(O)CCn4cncc43)ccc2c1 (stereo unspecified)
GI50 (MDA-MB-468 breast): > 100 µM | TGI (MDA-MB-468 breast): > 100 µM

CCCC[N+](CCCC)=c1ccc2nc3c(C)cc(N(CC)CC)cc3sc-2c1
GI50 (MDA-MB-468 breast): 0.0391 µM | TGI (MDA-MB-468 breast): 0.351 µM

CC(=O)OCC(=O)O[C@@H]1C[C@]2(C(C)C)O[C@@]1(C)[C@@H]1CC[C@@H](C)[C@H]1[C@@H]2OC(=O)/C=C/c1ccccc1
GI50 (MDA-MB-468 breast): 13.5 µM | TGI (MDA-MB-468 breast): 55.6 µM

O=[N+]([O-])c1ccc2c(N3CCC(CCCC4CCN(c5ncnc6cc([N+](=O)[O-])ccc56)CC4)CC3)ncnc2c1
GI50 (MDA-MB-468 breast): 0.0316 µM | TGI (MDA-MB-468 breast): > 100 µM

CN1CCN(c2ccc3nc(-c4c(N)c5c(F)cccc5[nH]c4=O)[nH]c3c2)CC1
GI50 (MDA-MB-468 breast): 1.46 µM and 0.953 µM and 2.3 µM | TGI (MDA-MB-468 breast): 3.58 µM and > 2.3 µM and 7.03 µM

COc1cnc2c(c1)C(=O)c1c-2n(CCCN2CCC(O)CC2)c(=O)c2cc(F)ccc12
GI50 (MDA-MB-468 breast): 0.152 µM | TGI (MDA-MB-468 breast): 0.438 µM

O=C(Nc1ccc(Oc2ccc3nc(NC(=O)c4ccccc4)[nH]c3c2)cc1)Nc1cc(C(F)(F)F)ccc1F
GI50 (MDA-MB-468 breast): 0.625 µM | TGI (MDA-MB-468 breast): 5.45 µM
